According to patent US6869913B1, “Pyridazin-3-one derivatives, their use and intermediates for their production” (Sumitomo Chemical Company, Limited, priority 1995, dated 2005):

How the values were obtained:
Format in all cases: in vivo
[1] = tested on: entireleaf morningglory (Ipomoea hederacea var. integriuscula); test: Test Example 1: foliar treatment on upland fields; conditions: 500 g/ha active ingredient; foliar spray; examined 19 days after application
Method: (§1) Cylindrical plastic pots of 10 cm in diameter and 10 cm in depth were filled with soil, in which the seeds of […] (Ipomoea hederacea var. integriuscula) and velvetleaf (Abutilon theophrash) were sowed, and the test plants were grown in a greenhouse for 19 days. Each of the test compounds listed below was formulated into an emulsifiable concentrate according to Formulation Example 2, which was diluted with water containing a spreading agent to a prescribed concentration. The dilution was uniformly sprayed over the foliage of the test plants with a sprayer at a volume of 1000 liters per hectare. After the application, the test plants were grown in the greenhouse for 19 days, and the herbicidal activity was examined.

[2] = tested on: velvetleaf (Abutilon theophrash); test: Test Example 1: foliar treatment on upland fields; conditions: 500 g/ha active ingredient; foliar spray; examined 19 days after application
Method: as §1

[3] = tested on: entireleaf morningglory (Ipomoea hederacea var. integriuscula); test: Test Example 3: soil surface treatment on upland fields; conditions: 500 g/ha active ingredient; soil surface spray; examined after 19 days
Method: (§2) Cylindrical plastic pots of 10 cm in diameter and […] in depth were filled with soil, in which the seeds of […] (Ipomoea hederacea var. integriuscula) and velvetleaf (Abutilon theophrash) were sowed. Each of the test compounds listed below was formulated into an emulsifiable concentrate according to Formulation Example 2, which was diluted with water to a prescribed concentration. The dilution was uniformly sprayed over the soil surface in the pots with a sprayer at a volume of 1000 liters per hectare. After the application, the test plants were grown in a greenhouse for 19 days, and the herbicidal activity was examined.

[4] = tested on: velvetleaf (Abutilon theophrash); test: as above; conditions: 500 g/ha active ingredient; soil surface spray; examined after 19 days
Method: as §2

[5] = tested on: barnyardgrass (Echinochloa oryzicola); test: Test Example 4: flooding treatment on paddy fields; conditions: application amount of active ingredient 250 g/ha, examined 19 days after application, index 0 to 5
Method: Cylindrical plastic pots of 9 cm in diameter and 11 cm in depth were filled with soil, in which the seeds of barnyardgrass (Echinochloa oryzicola) were sowed. These pots were flooded to form a paddy field, and the test plants were grown in a greenhouse for 7 days. Each of the test compounds listed below was formulated into an emulsifiable concentrate according to Formulation Example 2, which was diluted with water to a prescribed concentration. The dilution was applied to the water surface in the pots at a volume of 50 liters per hectare. After the application, the test plants were grown in the greenhouse for 19 days, and the herbicidal activity was examined.

[6] = tested on: entireleaf morningglory (Ipomoea hederacea var. integriuscula); test: Test Example 2: foliar treatment on upland fields; set-up: key: rating; 4–5 = excellent activity, 3 or lower = insufficient; conditions: 32 g/ha active ingredient; foliar spray; examined 19 days after application
Excerpt: (§3) The herbicidal activity is excellent when rated at “4” or “5” but insufficient when rated at “3” or lower. The phytotoxicity is no problematic on practical use when rated at “0” or “1” but not allowed when rated at “2” or higher.
(§4) Cylindrical plastic pots of 10 cm in diameter and 10 cm in depth were filled with soil, in which the seeds of barnyardgrass (Echinochloa crus-galli), entireleaf morningglory (Ipomoea hederacea var. integriuscula) and velvetleaf (Abutilon theophrash) were sowed, and the test plants were grown in a greenhouse for 19 days. Each of the test compounds listed below was formulated into an emulsifiable concentrate according to Formulation Example 2, which was diluted with water containing a spreading agent to a prescribed concentration. The dilution was uniformly sprayed over the foliage of the test plants with a sprayer at a volume of 1000 liters per hectare. After the application, the test plants were grown in the greenhouse for 19 days, and the herbicidal activity was examined.

[7] = tested on: velvetleaf (Abutilon theophrash); test: Test Example 2: foliar treatment on upland fields; set-up: key: rating; 4–5 = excellent activity, 3 or lower = insufficient; conditions: 32 g/ha active ingredient; foliar spray; examined 19 days after application
Excerpt: as §3, §4

[8] = tested on: barnyardgrass (Echinochloa crus-galli); test: Test Example 2: foliar treatment on upland fields; set-up: key: rating; 4–5 = excellent activity, 3 or lower = insufficient; conditions: 32 g/ha active ingredient; foliar spray; examined 19 days after application
Excerpt: as §3, §4

O=c1cc(C(F)(F)F)cnn1-c1ccc(Cl)cc1 [Compound 1-332, 2-(4-chlorophenyl)-5-trifluoromethylpyridazin-3-one]
5: Herbicidal activity Entireleaf morningglory [1] | Herbicidal activity Velvetleaf [2] | Herbicidal activity Entireleaf morningglory [3] | Herbicidal activity Velvetleaf [4] | Herbicidal activity Barnyardgrass [5]

Cc1c(C(F)(F)F)cnn(-c2cc(NS(C)(=O)=O)c(Cl)cc2F)c1=O [Compound 1-367, N-[2-chloro-4-fluoro-5-(4-methyl-5-trifluoromethyl-3-pyridazinon-2-yl)phenyl]methanesulfonamide]
5: Herbicidal activity Entireleaf morningglory [1] | Herbicidal activity Velvetleaf [2] | Herbicidal activity Entireleaf morningglory [3] | Herbicidal activity Velvetleaf [4] | Herbicidal activity Barnyardgrass [5]

Cc1c(C(F)(F)F)cnn(-c2cc(NS(=O)(=O)CCl)c(Cl)cc2F)c1=O [Compound 1-369, N-{2-chloro-4-fluoro-5-(4-methyl-5-trifluoromethyl-3-pyridazinon-2-yl)phenyl}chloromethanesulfonamide]
5: Herbicidal activity Entireleaf morningglory [1] | Herbicidal activity Velvetleaf [2] | Herbicidal activity Entireleaf morningglory [3] | Herbicidal activity Velvetleaf [4] | Herbicidal activity Entireleaf morningglory [6] | Herbicidal activity Velvetleaf [7] | Herbicidal activity Barnyardgrass [8] | Herbicidal activity Barnyardgrass [5]

Cc1c(C(F)(F)F)cnn(-c2cc(O)c(Cl)cc2F)c1=O [Compound 1-391, 2-[2-fluoro-4-chloro-5-hydroxyphenyl]4-methyl-5-trifluoromethylpyridazin-3-one]
5: Herbicidal activity Entireleaf morningglory [1] | Herbicidal activity Velvetleaf [2] | Herbicidal activity Entireleaf morningglory [3] | Herbicidal activity Velvetleaf [4] | Herbicidal activity Barnyardgrass [5]

CCOC(=O)C(C)Nc1cc(-n2ncc(C(F)(F)F)c(C)c2=O)c(F)cc1Cl (stereo not drawn) [Compound 1-420, Ethyl 2-{2-chloro-4-fluoro-5-(4-methyl-5-trifluoromethyl-3-pyridazinon-2-yl)phenylamino}propionate]
5: Herbicidal activity Entireleaf morningglory [1] | Herbicidal activity Velvetleaf [2] | Herbicidal activity Entireleaf morningglory [3] | Herbicidal activity Velvetleaf [4] | Herbicidal activity Entireleaf morningglory [6] | Herbicidal activity Velvetleaf [7] | Herbicidal activity Barnyardgrass [8] | Herbicidal activity Barnyardgrass [5]

Cc1c(C(F)(F)F)cnn(-c2cc(OC(C)C)c(Cl)cc2F)c1=O [Compound 1-476, 2-[2-fluoro-4-chloro-5-isopropoxyphenyl]4-methyl-5-trifluoromethylpyridazin-3-one]
5: Herbicidal activity Entireleaf morningglory [1] | Herbicidal activity Velvetleaf [2] | Herbicidal activity Entireleaf morningglory [3] | Herbicidal activity Velvetleaf [4] | Herbicidal activity Barnyardgrass [5]

COC(=O)C(C)Sc1cc(-n2ncc(C(F)(F)F)cc2=O)c(F)cc1Cl (stereo not drawn) [Compound 1-1221, Methyl 2-{2-chloro-4-fluoro-5-(5-trifluoromethyl-3-pyridazinon-2-yl)phenylthio}propionate]
5: Herbicidal activity Entireleaf morningglory [1] | Herbicidal activity Velvetleaf [2] | Herbicidal activity Entireleaf morningglory [3] | Herbicidal activity Velvetleaf [4] | Herbicidal activity Entireleaf morningglory [6] | Herbicidal activity Velvetleaf [7] | Herbicidal activity Barnyardgrass [8] | Herbicidal activity Barnyardgrass [5]

CCOC(=O)C(C)Sc1cc(-n2ncc(C(F)(F)F)cc2=O)c(F)cc1Cl (stereo not drawn) [Compound 1-1222, Ethyl 2-{2-chloro-4-fluoro-5-(5-trifluoromethyl-3-pyridazinon-2-yl)phenylthio}propionate]
5: Herbicidal activity Entireleaf morningglory [1] | Herbicidal activity Velvetleaf [2] | Herbicidal activity Entireleaf morningglory [3] | Herbicidal activity Velvetleaf [4] | Herbicidal activity Entireleaf morningglory [6] | Herbicidal activity Velvetleaf [7] | Herbicidal activity Barnyardgrass [8] | Herbicidal activity Barnyardgrass [5]

Cc1c(C(F)(F)F)cnn(-c2cc(OC(C)C)c(Br)cc2F)c1=O [Compound 1-1783, 2-(4-bromo-2-fluoro-5-isopropyloxyphenyl)-4-methyl-5-trifluoromethylpyridazin-3-one]
5: Herbicidal activity Entireleaf morningglory [1] | Herbicidal activity Velvetleaf [2] | Herbicidal activity Entireleaf morningglory [3] | Herbicidal activity Velvetleaf [4] | Herbicidal activity Entireleaf morningglory [6] | Herbicidal activity Velvetleaf [7] | Herbicidal activity Barnyardgrass [8] | Herbicidal activity Barnyardgrass [5]

C#CCN1C(=O)COc2cc(F)c(-n3ncc(C(F)(F)F)c(C)c3=O)cc21 [Compound 2-251, 7-Fluoro-6-(4-methyl-5-trifluoromethyl-3-pyridazinon-2-yl)-4-propargyl-2H-1,4-benzoxazin-3-one]
5: Herbicidal activity Entireleaf morningglory [1] | Herbicidal activity Velvetleaf [2] | Herbicidal activity Entireleaf morningglory [3] | Herbicidal activity Velvetleaf [4] | Herbicidal activity Entireleaf morningglory [6] | Herbicidal activity Velvetleaf [7] | Herbicidal activity Barnyardgrass [8] | Herbicidal activity Barnyardgrass [5]

CCC(C)n1c(=O)sc2cc(F)c(-n3ncc(C(F)(F)F)c(C)c3=O)cc21 (stereo not drawn) [Compound 2-328]
5: Herbicidal activity Entireleaf morningglory [1] | Herbicidal activity Velvetleaf [2] | Herbicidal activity Entireleaf morningglory [3] | Herbicidal activity Velvetleaf [4] | Herbicidal activity Barnyardgrass [5]

C#CCN1C(=O)COc2cc(F)c(-n3nc(C)c(C(F)(F)F)cc3=O)cc21 [Compound 2-821, 7-fluoro-6-(6-methyl-5-trifluoromethyl-3-pyridazinon-2-yl)-4-propargyl-2H-1,4-benzoxazin-3-one]
5: Herbicidal activity Entireleaf morningglory [1] | Herbicidal activity Velvetleaf [2] | Herbicidal activity Entireleaf morningglory [3] | Herbicidal activity Velvetleaf [4] | Herbicidal activity Entireleaf morningglory [6] | Herbicidal activity Velvetleaf [7] | Herbicidal activity Barnyardgrass [8] | Herbicidal activity Barnyardgrass [5]

Cc1cc2c(-n3ncc(C(F)(F)F)c(C)c3=O)c(F)cc(Cl)c2o1 [Compound 3-139]
5: Herbicidal activity Entireleaf morningglory [1] | Herbicidal activity Velvetleaf [2] | Herbicidal activity Barnyardgrass [5]

Cc1c(C(F)(F)F)cnn(-c2c(F)cc(Cl)c3c2CC(C)(C)O3)c1=O [Compound 4-451]
5: Herbicidal activity Entireleaf morningglory [1] | Herbicidal activity Velvetleaf [2] | Herbicidal activity Barnyardgrass [5]
